Earlier results on one compound are cited in US9326524B1, “Insect repellent compositions” (Nantucket Spider, LLC, priority 2014, dated 2016).

In the data set the test system is mosquitoes. The settings on record: compared with naturally derived PMD in the form of OLE.

Take `CC1CCC(C(C)(C)O)C(O)C1` (stereo not shown) [Pure PMD, p-Menthane-3,8-diol]: the “efficacy in repelling mosquitoes” value is “significantly less efficacious”.
